Measured values: patent publication US12565515B2, “1,2,4-oxadiazole compounds as inhibitors of CD47 signalling pathways” (AURIGENE ONCOLOGY LIMITED, priority 2018, dated 2026)

Assays:
[1] = system: H929 cells; experiment: FACS based phagocytosis assay; format: cell-based; conditions: NCI-H929, human macrophages, CFSE stained H929 cells, flow cytometry, normalized to positive control B6H12
Experimental: (§1) DPBS (Gibco), RPMI 1640 WITH HEPES AND L-GLN-500 ML (Lonza), Recombinant Human M-CSF (R& D systems), CD47 Monoclonal Antibody (B6H12), Functional Grade antibody (Ebioscience), Mouse IgG1 kappa Isotype Control, Functional Grade (Ebioscience), Vacutainer (multiple sample luer adapter) (BD), Vacutainer (sodium heparin (NH) 158USP units, Blood collection tubes (BD), Histopaque (density—1.077 gm/ml) (SIGMA 1077), Trypan Blue solution (SIGMA-T8154), Hemacytometer (Bright line-SIGMA Z359629), Scalp vein infusion set (JMS), Cell Dissociation buffer (Gibco), 48-well sterile flat bottom plates (Corning), Luciferase expressing Raji cells (Generated in house by trasfection of luciferase gene in Raji cells) Luminometer, Hygromycin B (Invitrogen), Bright Glo luciferase assay system (Promega), 96 well plate, polystyrene, high band, white flat bottom wells (Sigma CLS3912), APC anti-mouse/human CD11b Antibody (Biolegend), H929 cells, CFSE (Ebioscience), Fetal Bovine Serum (Gibco Cat #: 10437028), Round-Bottom FACs Tubes (BD), Flowcytometer BD FACS Verse, 96 well plates, ultra-low attachment (Corning).
Monocytes were isolated from blood of healthy donor and cultured for 6-8 days using 10% RPMI (Roswell Park Memorial Institute) media and recombinant human M-CSF to differentiate into macrophages. Media was changed every alternate day. Simultaneously, H929 cells were cultured in 10% RPMI media with 50 μg/mL of betamercaptoethanol in tissue culture flask. On the day of phagocytosis adherent macrophages were serum starved for 2 hours in RPMI media. Simultaneously H929 cells were stained with 0.3 μM CFSE stain. After washing, 0.2 million CFSE stained H929 cells were incubated with anti-human CD47 or Mouse IgG1 K Isotype Control antibody or various conc of test item in serum free media for 30 min at 37° C. After 2 hours of serum starvation macrophages were dissociated with cell dissociation buffer and collected by gentle scraping and added at conc of 0.05 million per well into respective wells of the ultra-low attachment 96 well plate seeded with H929 cells. Phagocytosis was allowed for 2 hours. After 2 hours, cells were washed with PBS and stained with 1 μL of anti-human CD11b-APC antibody prepared in 100 μL of PBS for 30 min in 4° C. in dark. Cells were further washed and fixed in 100 μL of fixation buffer until acquired by Flow cytometry. The extent of phagocytosis of H929 cells by human macrophages was measured by acquiring the samples by Flow cytometry. Samples acquired by Flow cytometry were analysed by using FlowJo software. Each experimental condition was carried out in duplicate. Cells positive for FITC (CFSE) and CD11b-APC were considered as phagocytosed macrophages. Raw data of % phagocytosis by macrophages were obtained in the form of excel sheet from FlowJo. % phagocytosis from isotype control (background phagocytosis) was subtracted from % phagocytosis of macrophages treated with compound as well as other controls to get corrected phagocytosis values. Corrected phagocytosis values of compound treated samples were normalized with phagocytosis of positive control (B6H12) using the formula: % normalized phagocytosis=[(corrected % phagocytosis of compound)/(corrected phagocytosis of B6H12)*100]

[2] = system: luciferase expressing Raji cells; experiment: Luciferase based phagocytosis assay; format: cell-based; conditions: human monocyte-derived macrophages, luminescence, read-out: % normalized phagocytosis (at 10 μM)
Experimental: as §1
In vitro phagocytosis assay was performed to evaluate the ability of test item to enhance the phagocytic activity of macrophages. Monocytes were isolated from blood of healthy donor and cultured for 6-8 days using 10% RPMI (Roswell Park Memorial Institute) media and recombinant human M-CSF to differentiate into macrophages. Media was changed every alternate day. After differentiation, adherent macrophages were collected by gentle scraping and cultured in 10% RPMI overnight at a density of 0.1 million per well in 48 well tissue culture plate. Simultaneously, luciferase expressing Raji cells were cultured in 10% RPMI media with 100 μg/mL of hygromycin B in tissue culture flask. On the day of phagocytosis, macrophages were serum starved for 2 hours. 0.4 million luciferase expressing Raji cells per well were incubated with anti human CD47 purified B6H12 or Mouse IgG1 K Isotype Control antibody or various concentrations of test item in serum free media for 30 min at 37° C. and added into respective well of the 48 well plate seeded with macrophages. After 2 hours, cells were washed twice with PBS and 100 μL of serum free RPMI was added to each well. Additionally, 50 μL Bright Glow reagent was added to each well followed by mixing of cells and incubated for 5 min in dark. Luminescence reading was taken using plate reader after transferring the content of each well to white plate. Intensity of luminescence indicated the extent of phagocytosis. Each experimental condition was carried out in duplicate.

[3] = system: A20 syngeneic lymphoma; experiment: Efficacy in A20 syngeneic lymphoma model; format: in vivo; conditions: for TGI (%): per orally
Source text: Female Balb/c (BALB/cAnNTac) mice (6-8 weeks-old) bred in-house were used in this efficacy study in the A20 syngeneic lymphoma model. Animals were marked individually with tail marks and kept in cages that were identified by a cage card showing the study code, date of experimentation, sex and number of animals. During the experiment, the animals were weighed daily. A20 cell line (B-cell lymphoma line derived from a spontaneous reticulum cell neoplasm found in an old BALB/cAnN mouse) was procured from ATCC. When the mean tumor volumes reached approximately 75 mm^3, the animals were randomized based on tumour volumes into four groups of twelve animals in each group. Following randomization into various treatment groups, dosing with vehicle and Compound 6 was initiated. All treatments were administered per orally at a twice daily dosing frequency using a dose of 3 mg/kg, 10 mg/Kg and 30 mg/Kg. The treatment was continued for a period of 21 days after which the overall efficacy and tolerability were evaluated based on tumor volume and body weight changes observed during the treatment period. On treatment day 21, animals from all the treatment groups were sacrificed in sequential order at 1 hour after last dose administration.
Individual animal body weights were recorded daily before the administration of test item throughout the experimental period. […] The tumor volumes were measured in all treatment group animals thrice a week (once every 2-3 days) using a digital Vernier callipers. From an ethical viewpoint, any treatment/control group with a mean tumor weight in excess of 10% of animal body weight were humanely sacrificed. As a measure of efficacy, the % T (treatment)/C(control) and % TGI (% Tumor growth inhibition) values were calculated. Graphs and statistical analysis were performed using GraphPad Prism®, Version 7.0. For analysis of tumor volume data, statistical comparison was done on Day 21 for all groups using One-way ANOVA with Dunnett's multiple comparison test. All analyses and comparisons was evaluated at the 5% (p<0.05) level. A “p” value less than 0.05 was considered as significant.

## NC(=O)CC[C@H](N)c1noc(CNC(=O)N2CCCC2C(=O)O)n1 (stereo partly shown) [Compound 6]
[1]
  activation at 10 µM: 74%
[2]
  activation at 10 µM: 66%
[3]; 3 mg/kg (bid), 21 days, Balb/c mice
  TGI (%): 53%
[3]; 10 mg/kg (bid), 21 days, Balb/c mice
  TGI (%): 64%
[3]; 30 mg/kg (bid), 21 days, Balb/c mice
  TGI (%): 67%
[3]; 3, 10 and 30 mg/kg bid per orally, 21 days, Balb/c mice
  tolerability (body weight, clinical signs of toxicity): well tolerated without any signs of body weight loss and/or clinical signs of toxicity
[3]; all the tested dose levels (3, 10, 30 mg/kg bid), Day 21, one-way ANOVA
  antitumor efficacy, significance of tumor growth inhibition: statistically significant tumor growth inhibition (TGI) at all the tested dose levels
